This passage reports relative viability results from the supplement of paper PMC10307832.

Common to all, as to assay: relative viability (nuclei count vs DMSO), 5 days (fraction); higher = more cells survive
Compound in the assay “Crenolanib + Crizotinib”: CC1(COc2ccc3c(c2)ncn3-c2ccc3cccc(N4CCC(N)CC4)c3n2)COC1 [Crenolanib] + C[C@@H](Oc1cc(-c2cnn(C3CCNCC3)c2)cnc1N)c1c(Cl)ccc(F)c1Cl [Crizotinib] (partner 1 µM)
The essentials:
(§1)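 After 5 days of treatment, lung cancer cells in 1536-well plates were fixed and stained in a single step (final 0.05% Triton X-100, 1% formaldehyde, 1 ug/ml Hoechst) and their nuclei counted on 4× images. Treatment had been applied by pin tool the day after seeding as one drug alone or as a fixed anchor-drug dose with five library-drug doses (not always all listed) in √10 steps. Relative viability is the nuclei count of treated wells divided by that of vehicle wells, and values are medians of duplicate plates.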

Compound in the assay “Crenolanib + Bortezomib”: CC1(COc2ccc3c(c2)ncn3-c2ccc3cccc(N4CCC(N)CC4)c3n2)COC1 [Crenolanib] + CC(C)C[C@H](NC(=O)[C@H](Cc1ccccc1)NC(=O)c1cnccn1)B(O)O [Bortezomib] (partner 0.002 µM)
The procedure, abridged:
as §1

Compound in the assay “Tivantinib + Bortezomib”: O=C1NC(=O)[C@@H](c2cn3c4c(cccc24)CCC3)[C@@H]1c1c[nH]c2ccccc12 [Tivantinib] + CC(C)C[C@H](NC(=O)[C@H](Cc1ccccc1)NC(=O)c1cnccn1)B(O)O [Bortezomib] (partner 0.002 µM)
The essentials: as §1

Compound in the assay “Tivantinib + AZD7762”: O=C1NC(=O)[C@@H](c2cn3c4c(cccc24)CCC3)[C@@H]1c1c[nH]c2ccccc12 [Tivantinib] + NC(=O)Nc1cc(-c2cccc(F)c2)sc1C(=O)N[C@H]1CCCNC1 [AZD7762] (partner 0.2 µM)
The essentials: as §1

NCI-H2087: the relative viability with Crenolanib + Crizotinib (first compound 0.01 µM) worked out at 0.693; with Crenolanib + Crizotinib (first compound 0.03162 µM), 0.919; in the assay with Crenolanib + Crizotinib (first compound 0.1 µM) it was 0.809; in the assay with Crenolanib + Crizotinib (first compound 0.3162 µM), 0.992; in the assay with Crenolanib + Crizotinib (first compound 1 µM), 0.965; with Crenolanib + Bortezomib (first compound 0.01 µM) it was 0.885. The relative viability with Crenolanib + Bortezomib (first compound 0.03162 µM) was determined as 0.74; with Crenolanib + Bortezomib (first compound 0.1 µM), 0.917; in the assay with Crenolanib + Bortezomib (first compound 0.3162 µM), 0.865; in the assay with Crenolanib + Bortezomib (first compound 1 µM), 0.947; with Tivantinib + Bortezomib (first compound 0.01 µM), 0.759; with Tivantinib + Bortezomib (first compound 0.03162 µM), 0.639. In addition, the relative viability worked out at 0.664 with Tivantinib + Bortezomib (first compound 0.1 µM); 0.893 in the assay with Tivantinib + Bortezomib (first compound 0.3162 µM); 1.28 with Tivantinib + AZD7762 (first compound 0.01 µM); 1.47 with Tivantinib + AZD7762 (first compound 0.03162 µM); 1.12 in the assay with Tivantinib + AZD7762 (first compound 0.1 µM); 1.32 with Tivantinib + AZD7762 (first compound 0.3162 µM).

Take LCLC-103H: the relative viability in the assay with Crenolanib + Crizotinib (first compound 0.01 µM) was 1.12; in the assay with Crenolanib + Crizotinib (first compound 0.03162 µM) it was 1.03; in the assay with Crenolanib + Crizotinib (first compound 0.1 µM) it was 1.06; with Crenolanib + Crizotinib (first compound 0.3162 µM), 1; with Crenolanib + Crizotinib (first compound 1 µM) it was 1.01; with Crenolanib + Bortezomib (first compound 0.01 µM) it was 1.05. The relative viability with Crenolanib + Bortezomib (first compound 0.03162 µM) amounted to 1.02; with Crenolanib + Bortezomib (first compound 0.1 µM), 0.922; with Crenolanib + Bortezomib (first compound 0.3162 µM), 0.954; in the assay with Crenolanib + Bortezomib (first compound 1 µM), 0.976; with Tivantinib + Bortezomib (first compound 0.01 µM), 0.909; in the assay with Tivantinib + Bortezomib (first compound 0.03162 µM), 0.895. The relative viability was 0.966 in the assay with Tivantinib + Bortezomib (first compound 0.1 µM); 1.03 with Tivantinib + Bortezomib (first compound 0.3162 µM); 0.808 with Tivantinib + AZD7762 (first compound 0.01 µM); 0.702 with Tivantinib + AZD7762 (first compound 0.03162 µM); 0.684 with Tivantinib + AZD7762 (first compound 0.1 µM); 0.793 with Tivantinib + AZD7762 (first compound 0.3162 µM).

For NCI-H1437, the relative viability with Crenolanib + Crizotinib (first compound 0.01 µM) is 1.02; with Crenolanib + Crizotinib (first compound 0.03162 µM), 1.04; in the assay with Crenolanib + Crizotinib (first compound 0.1 µM), 1; with Crenolanib + Crizotinib (first compound 0.3162 µM) it was 1.04; in the assay with Crenolanib + Crizotinib (first compound 1 µM), 0.897; with Crenolanib + Bortezomib (first compound 0.01 µM), 0.48. Besides, the relative viability with Crenolanib + Bortezomib (first compound 0.03162 µM) came out at 0.408; in the assay with Crenolanib + Bortezomib (first compound 0.1 µM) it was 0.557; in the assay with Crenolanib + Bortezomib (first compound 0.3162 µM) it was 0.515; with Crenolanib + Bortezomib (first compound 1 µM), 0.526; in the assay with Tivantinib + Bortezomib (first compound 0.01 µM), 0.503; in the assay with Tivantinib + Bortezomib (first compound 0.03162 µM) it was 0.344. Also, the relative viability was found to be 0.425 in the assay with Tivantinib + Bortezomib (first compound 0.1 µM); 0.434 with Tivantinib + Bortezomib (first compound 0.3162 µM); 1.22 in the assay with Tivantinib + AZD7762 (first compound 0.01 µM); 1.16 with Tivantinib + AZD7762 (first compound 0.03162 µM); 1.11 with Tivantinib + AZD7762 (first compound 0.1 µM); 0.96 in the assay with Tivantinib + AZD7762 (first compound 0.3162 µM).

Regarding HARA, the relative viability with Crenolanib + Crizotinib (first compound 0.01 µM) stood at 1.24; in the assay with Crenolanib + Crizotinib (first compound 0.03162 µM), 1; with Crenolanib + Crizotinib (first compound 0.1 µM) it was 0.938; in the assay with Crenolanib + Crizotinib (first compound 0.3162 µM) it was 0.924; in the assay with Crenolanib + Crizotinib (first compound 1 µM) it was 1; with Crenolanib + Bortezomib (first compound 0.01 µM) it was 1.17. For the same cell line, the relative viability with Crenolanib + Bortezomib (first compound 0.03162 µM) came out at 1.1; in the assay with Crenolanib + Bortezomib (first compound 0.1 µM), 1.09; with Crenolanib + Bortezomib (first compound 0.3162 µM), 1.13; with Crenolanib + Bortezomib (first compound 1 µM), 1.16; with Tivantinib + Bortezomib (first compound 0.01 µM), 1.16; with Tivantinib + Bortezomib (first compound 0.03162 µM), 1.04. The relative viability with Tivantinib + Bortezomib (first compound 0.1 µM) came out at 1.07; in the assay with Tivantinib + Bortezomib (first compound 0.3162 µM) it was 1.06; in the assay with Tivantinib + AZD7762 (first compound 0.01 µM), 0.214; with Tivantinib + AZD7762 (first compound 0.03162 µM), 0.416; with Tivantinib + AZD7762 (first compound 0.1 µM), 0.394; in the assay with Tivantinib + AZD7762 (first compound 0.3162 µM), 0.288.

Consider NCI-H1755, for which the relative viability stood at 0.835 in the assay with Crenolanib + Crizotinib (first compound 0.01 µM); 0.932 with Crenolanib + Crizotinib (first compound 0.03162 µM); 0.832 in the assay with Crenolanib + Crizotinib (first compound 0.1 µM); 0.917 with Crenolanib + Crizotinib (first compound 0.3162 µM); 0.854 in the assay with Crenolanib + Crizotinib (first compound 1 µM); 1.03 with Crenolanib + Bortezomib (first compound 0.01 µM). Besides, the relative viability with Crenolanib + Bortezomib (first compound 0.03162 µM) turned out to be 0.993; with Crenolanib + Bortezomib (first compound 0.1 µM), 1.01; with Crenolanib + Bortezomib (first compound 0.3162 µM), 0.967; in the assay with Crenolanib + Bortezomib (first compound 1 µM), 0.909; with Tivantinib + Bortezomib (first compound 0.01 µM), 0.974; with Tivantinib + Bortezomib (first compound 0.03162 µM), 0.94. The relative viability was 0.934 in the assay with Tivantinib + Bortezomib (first compound 0.1 µM); 1.01 with Tivantinib + Bortezomib (first compound 0.3162 µM); 0.457 with Tivantinib + AZD7762 (first compound 0.01 µM); 0.476 with Tivantinib + AZD7762 (first compound 0.03162 µM); 0.47 with Tivantinib + AZD7762 (first compound 0.1 µM); 0.424 with Tivantinib + AZD7762 (first compound 0.3162 µM).

Consider LU99A, for which the relative viability with Crenolanib + Crizotinib (first compound 0.01 µM) came to 0.565; with Crenolanib + Crizotinib (first compound 0.03162 µM) it was 0.654; in the assay with Crenolanib + Crizotinib (first compound 0.1 µM), 0.615; with Crenolanib + Crizotinib (first compound 0.3162 µM) it was 0.558; in the assay with Crenolanib + Crizotinib (first compound 1 µM), 0.568; with Crenolanib + Bortezomib (first compound 0.01 µM), 1.23. Also, the relative viability in the assay with Crenolanib + Bortezomib (first compound 0.03162 µM) was determined as 1.28; with Crenolanib + Bortezomib (first compound 0.1 µM), 0.983; with Crenolanib + Bortezomib (first compound 0.3162 µM), 1.34; with Crenolanib + Bortezomib (first compound 1 µM) it was 1.05; in the assay with Tivantinib + Bortezomib (first compound 0.01 µM) it was 1.19; with Tivantinib + Bortezomib (first compound 0.03162 µM), 0.99. Besides, the relative viability with Tivantinib + Bortezomib (first compound 0.1 µM) came out at 1.18; in the assay with Tivantinib + Bortezomib (first compound 0.3162 µM) it was 1.09; in the assay with Tivantinib + AZD7762 (first compound 0.01 µM), 0.318; with Tivantinib + AZD7762 (first compound 0.03162 µM) it was 0.356; with Tivantinib + AZD7762 (first compound 0.1 µM), 0.307; with Tivantinib + AZD7762 (first compound 0.3162 µM), 0.278.

Turning to ChaGo-K-1, the relative viability came out at 1.16 in the assay with Crenolanib + Crizotinib (first compound 0.01 µM); 1.17 with Crenolanib + Crizotinib (first compound 0.03162 µM); 1.17 with Crenolanib + Crizotinib (first compound 0.1 µM); 1.06 with Crenolanib + Crizotinib (first compound 0.3162 µM); 1.09 with Crenolanib + Crizotinib (first compound 1 µM); 1.07 with Crenolanib + Bortezomib (first compound 0.01 µM). In addition, the relative viability with Crenolanib + Bortezomib (first compound 0.03162 µM) was determined as 0.769; with Crenolanib + Bortezomib (first compound 0.1 µM), 0.941; with Crenolanib + Bortezomib (first compound 0.3162 µM), 0.969; in the assay with Crenolanib + Bortezomib (first compound 1 µM), 0.971; in the assay with Tivantinib + Bortezomib (first compound 0.01 µM) it was 0.96; with Tivantinib + Bortezomib (first compound 0.03162 µM) it was 0.957. Further, the relative viability with Tivantinib + Bortezomib (first compound 0.1 µM) was 0.941; with Tivantinib + Bortezomib (first compound 0.3162 µM) it was 0.989; with Tivantinib + AZD7762 (first compound 0.01 µM), 0.781; with Tivantinib + AZD7762 (first compound 0.03162 µM) it was 0.871; in the assay with Tivantinib + AZD7762 (first compound 0.1 µM), 0.862; with Tivantinib + AZD7762 (first compound 0.3162 µM) it was 0.861.

Turning to NCI-H23, the relative viability with Crenolanib + Crizotinib (first compound 0.01 µM) was found to be 0.689; with Crenolanib + Crizotinib (first compound 0.03162 µM), 0.476; with Crenolanib + Crizotinib (first compound 0.1 µM), 0.615; with Crenolanib + Crizotinib (first compound 0.3162 µM), 0.441; with Crenolanib + Crizotinib (first compound 1 µM), 0.575; in the assay with Crenolanib + Bortezomib (first compound 0.01 µM) it was 0.892. The relative viability with Crenolanib + Bortezomib (first compound 0.03162 µM) is 1.2; in the assay with Crenolanib + Bortezomib (first compound 0.1 µM), 0.865; with Crenolanib + Bortezomib (first compound 0.3162 µM), 1.16; with Crenolanib + Bortezomib (first compound 1 µM) it was 0.696; with Tivantinib + Bortezomib (first compound 0.01 µM), 1.13; in the assay with Tivantinib + Bortezomib (first compound 0.03162 µM), 1.11. For the same cell line, the relative viability in the assay with Tivantinib + Bortezomib (first compound 0.1 µM) was found to be 0.996; with Tivantinib + Bortezomib (first compound 0.3162 µM), 0.965; in the assay with Tivantinib + AZD7762 (first compound 0.01 µM), 0.283; in the assay with Tivantinib + AZD7762 (first compound 0.03162 µM), 0.23; with Tivantinib + AZD7762 (first compound 0.1 µM), 0.319; with Tivantinib + AZD7762 (first compound 0.3162 µM), 0.336.
